What was measured:
BV-2 cells = assay: Cell viability of BV-2 cells; assay type: cell-based, mouse; details: BV2 cells, FIGS. 7, 8B to 8D
Experimental: Cell viability was also measured by a standard assay, e.g., measurement of the release of cytoplasm-resident enzymes in the tissue culture supernatant or media to detect cell loss/lysis/rupture.

hERG = hERG (Homo sapiens, UniProt Q12809); assay: hERG inhibition
Adrenergic α2A = biological target: T1, Adrenergic α2A (Homo sapiens, UniProt P08913); assay: Off-target screening; assay type: binding
T1 sequence (P08913 1-465): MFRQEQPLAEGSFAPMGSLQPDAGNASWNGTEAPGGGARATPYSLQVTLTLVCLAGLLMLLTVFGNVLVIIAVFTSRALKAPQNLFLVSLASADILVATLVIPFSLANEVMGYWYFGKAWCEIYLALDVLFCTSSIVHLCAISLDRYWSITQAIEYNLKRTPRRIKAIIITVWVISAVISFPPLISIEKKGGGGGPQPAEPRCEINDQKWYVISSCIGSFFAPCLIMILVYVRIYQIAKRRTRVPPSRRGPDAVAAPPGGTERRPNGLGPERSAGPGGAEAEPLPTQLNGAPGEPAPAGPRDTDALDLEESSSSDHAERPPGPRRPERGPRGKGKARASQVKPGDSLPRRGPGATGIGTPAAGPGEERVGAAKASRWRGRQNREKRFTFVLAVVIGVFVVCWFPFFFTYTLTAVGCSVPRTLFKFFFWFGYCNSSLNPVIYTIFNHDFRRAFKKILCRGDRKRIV
Text: (§1) In addition to the animal studies presented above in Examples 1-9, the results of in vitro testing of several of the compounds (i.e., XT-203, XT-204, and XT-206 through XT-217) are shown in Table 5 and Table 6. […]. Nine additional compounds had two or fewer off-target hits in the screening. […] These compounds spanned all of the tested N-modification classes. […]. Thus, the medicinal chemistry approach taken in this series of fluorinated compounds can yield low off-target activity and longer metabolic lifetime while preserving TLR4 antagonism. It is appreciated that further development of compounds in this class, using techniques known to those skilled in the art, may yield additional compounds with desirable pharmacologic and toxicologic characteristics.

Sodium channel site 2 = assay: Off-target screening; assay type: binding
Text: as §1

[1] = test system: EAE (multiple sclerosis model) pain; assay: Experimental Autoimmune Encephalomyelitis (EAE) model, mechanical allodynia; assay type: in vivo, rat; details: both paws
Text: The Experimental Autoimmune Encephalomyelitis (EAE) Model has been developed as a rat model of multiple sclerosis (Sloane, E. et al. Brain Behav. Immun. 2009, 23, 92-100). The model encompasses the injection of myelin oligodendrocyte glycoprotein (MOG) or similar glycoprotein to establish and antibody reaction that damages spinal nerve fibers leading to a progression of motor and sensory deficits. The rapid progression of deficits can be slowed by reduction of the MOG dose, enabling testing for pain responses prior to the development of hind limb paresis.
Reduced-dose MOG or saline (sham) was administered intradermally at the base of the tail. Mechanical allodynia pain testing was performed on hind left and right paws by application of Semmes-Weinstein (“von Frey”) monofilaments calibrated for different bending forces for 8 seconds to determine the paw-withdrawal threshold. On day 15 post EAE induction, after reduction in the paw-withdrawal threshold (establishment of mechanical allodynia pain), subcutaneous injection of 15 mg/kg XT-203 or saline was administered three times/day for 15 days. Behavioral data were analyzed with two-way ANOVA. For all tests, statistical significance was set to p<0.05 (*).

[2] = Hepatocyte elimination of parent compound, spread across species; assay type: in vitro ADME; details: mouse, rat, dog, monkey, human, hepatocytes; lowest to highest species value; read-out: range of hepatocyte elimination half-life values across species
Experimental: Hepatocyte Elimination: (+)-NTX, AK-17 and XT-203 were incubated with cultured hepatocytes from the species listed in FIG. 9 and Table 4, and samples of the culture supernatant were collected over time. Samples were concentrated by nitrogen drying followed by reconstitution with 40% methanol for LC/MS analysis The data points were analyzed using the WinNonLin pharmacokinetics software package, and a half-life was determined that describes the rate of parent elimination. […].
as §1

in vitro [3] = details: dog, cultured hepatocytes
in vitro [4] = details: human, cultured hepatocytes
Human hepatocytes = assay: Hepatocyte elimination of parent compound; details: hepatocytes
[5] = test system: acute nociceptive pain (paw incision); assay: Rat paw incision model, subcutaneous (Study R049); details: 30 mg/kg SC TID, five days; morphine 3 mg/kg as positive control

hERG, sequence (Q12809 whole entry): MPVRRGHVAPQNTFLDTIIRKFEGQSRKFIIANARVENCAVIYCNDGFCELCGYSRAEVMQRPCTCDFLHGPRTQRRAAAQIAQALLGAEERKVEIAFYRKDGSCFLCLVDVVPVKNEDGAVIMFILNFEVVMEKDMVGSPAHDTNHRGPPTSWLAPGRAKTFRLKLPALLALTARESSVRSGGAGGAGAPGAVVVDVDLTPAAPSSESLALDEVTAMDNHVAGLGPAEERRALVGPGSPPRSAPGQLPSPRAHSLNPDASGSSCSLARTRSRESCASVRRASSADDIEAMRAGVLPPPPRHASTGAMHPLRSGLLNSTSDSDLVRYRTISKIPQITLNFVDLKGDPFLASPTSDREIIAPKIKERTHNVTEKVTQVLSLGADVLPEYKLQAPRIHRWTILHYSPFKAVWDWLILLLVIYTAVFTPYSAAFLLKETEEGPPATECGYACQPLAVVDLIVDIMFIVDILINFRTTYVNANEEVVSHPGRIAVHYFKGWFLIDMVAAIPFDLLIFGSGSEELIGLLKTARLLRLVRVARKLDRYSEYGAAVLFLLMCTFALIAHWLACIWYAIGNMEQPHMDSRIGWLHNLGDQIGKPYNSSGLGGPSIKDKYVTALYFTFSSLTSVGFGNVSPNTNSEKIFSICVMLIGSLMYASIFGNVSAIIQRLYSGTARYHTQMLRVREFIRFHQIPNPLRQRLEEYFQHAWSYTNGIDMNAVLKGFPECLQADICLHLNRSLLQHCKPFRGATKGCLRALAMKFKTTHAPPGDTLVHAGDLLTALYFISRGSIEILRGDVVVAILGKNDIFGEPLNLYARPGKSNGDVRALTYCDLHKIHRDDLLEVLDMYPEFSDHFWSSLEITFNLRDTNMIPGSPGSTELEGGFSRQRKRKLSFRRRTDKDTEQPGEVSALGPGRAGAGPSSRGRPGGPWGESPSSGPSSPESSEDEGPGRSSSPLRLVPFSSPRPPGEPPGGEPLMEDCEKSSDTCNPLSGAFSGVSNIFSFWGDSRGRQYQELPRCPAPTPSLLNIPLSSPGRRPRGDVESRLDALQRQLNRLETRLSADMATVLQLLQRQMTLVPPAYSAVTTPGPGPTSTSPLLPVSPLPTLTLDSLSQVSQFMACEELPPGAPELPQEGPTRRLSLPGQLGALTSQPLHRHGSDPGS

## COc1ccc2c3c1O[C@@H]1C(F)CCC4[C@H](C2)N(CC2CC2)CC[C@]341 (some centres unmarked) [XT-203]
BV-2 cells
  cell viability: good viability
hERG
  IC50: > 100 µM
Adrenergic α2A
  % Inhibition at 10 μM, Adrenergic α2A: 99%
Adrenergic α2A; listed as XT 203, 10 µM
  % Inhibition at 10 μM, Adrenergic α2A: 64%
Adrenergic α2A; read-out: % inhibition at 1 μM (retest), Adrenergic α2A, 1 μM
  inhibition at 1 µM: < 50%
Sodium channel site 2; 10 µM
  % Inhibition at 10 μM, Sodium channel site 2: 64%
Sodium channel site 2; listed as XT 203, 10 µM
  % Inhibition at 10 μM, Sodium channel site 2: 54%
[1]; 15 mg/kg SC three times/day for 15 days from day 15 post EAE induction
  pain responses in MOG-treated rats: did reverse pain responses
[1]; 15 mg/kg SC three times/day for 15 days
  pain response in sham non-MOG rats: no effect
[2]
  half-life: 13.2 to 54.3 min
In vitro [3]
  half-life: 24.3 min
In vitro [4]
  half-life: 54.3 min
Human hepatocytes
  half-life in human hepatocytes compared to (+)-NTX and AK-17: enhanced half-life
[5]
  efficacy in rat paw incision model at the high dose: significant efficacy
